For 30 molecules, EC50 results are on record in patent US20230406843A1, “Progranulin Modulators and Methods of Using the Same” (ARKUDA THERAPEUTICS, priority 2020, published 2023).

One may read the EC50 as the concentration that produces a half-maximal response. The pEC50 is the negative decadic logarithm of the EC50, by convention in mol/L.

pEC50: −log10 of the molar value. Bounds are passed on as bounds.

One experiment has as its system progranulin. Briefly: Progranulin induction cellular assay (ELISA of secreted mouse PGRN). The format is cell-based. The following applies: Mus musculus, BV-2, read-out: EC50 μM. As to the method:
Cellular Assays: Progranulin induction assay. To measure the efficacy of compounds, a progranulin induction cellular assay in mouse primary microglia (pMG), primary cortical neurons, and BV-2 cell lines is used. BV-2 cells are split the day before plating into a 96 well plate format at approximately 80%. Cells should be plated the day before and allowed for 1 hour attachment period and for 16 hour incubation. Levels of progranulin secreted into the cell culture medium or retained in the cell lysate can be quantified using an ELISA-based readout and measurement of secreted mouse PGRN in the medium was assessed by the methodology published by Ghidoni et al. 2012. Standard ELISA kits to measure PGRN are available from vendors such as Adipogen, R&D, and Biovendor.
Table B below presents the results of a progranulin induction assay as described above.
In general terms: In an ELISA, binding on a coated surface is turned into a signal by an enzyme label.
With `CCNC[C@]1(O)CO[C@H](C(=O)N2CCc3ccccc3[C@@H]2c2ccc(F)cc2)C1` [Compound 5024, ((2S,4S)-4-((ethylamino)methyl)-4-hydroxytetrahydrofuran-2-yl)((S)-1-(4-fluorophenyl)-3,4-dihydroisoquinolin-2(1H)-yl)methanone], the EC50 was determined as 0.749 µM.
With `CCNC[C@@]1(O)CO[C@H](C(=O)N2CCc3ccccc3[C@@H]2c2ccc(F)cc2)C1` [Compound 5031, ((2S,4R)-4-((ethylamino)methyl)-4-hydroxytetrahydrofuran-2-yl)((S)-1-(4-fluorophenyl)-3,4-dihydroisoquinolin-2(1H)-yl)methanone], the EC50 is 0.326 µM.

The experiment is the same for the next values; noted with them: progranulin induction assay; mouse pMG, primary cortical neurons and BV-2 cell lines named, cell type not given; ELISA-based readout; read-out: EC50.
For `CC[N-][S@@+2](C)([O-])[C@H]1CO[C@@H](C(=O)N2CCc3ccccc3[C@@H]2c2ccc(F)cc2)C[C@@H]1N` (single isomer, unassigned) [Compound 5557], the pEC50 is 6.28.
As to `CC[N-][S@+2](C)([O-])[C@H]1CO[C@@H](C(=O)N2CCc3ccccc3[C@@H]2c2ccc(F)cc2)C[C@@H]1N` (single isomer, unassigned) [Compound 5558], the pEC50 is 6.51.
With `NCC1COC(C(=O)N2CCc3ccccc3[C@@H]2c2ccc(F)cc2)C1` (stereo in doubt) [Compound 5008, ((2S,4S)-4-(aminomethyl)tetrahydrofuran-2-yl)((S)-1-(4-fluorophenyl)-3,4-dihydroisoquinolin-2(1H)-yl)methanone], the pEC50 is 6.43.
With `NCC1COC(C(=O)N2CCc3ccccc3[C@@H]2c2ccc(F)cc2)C1` (stereo in doubt) [Compound 5009, ((2S,4R)-4-(aminomethyl)tetrahydrofuran-2-yl)((S)-1-(4-fluorophenyl)-3,4-dihydroisoquinolin-2(1H)-yl)methanone], the pEC50 was 6.43.
On to `N[C@H]1COC(C(=O)N2CCc3ccccc3[C@@H]2c2ccc(F)cc2)C1` (stereo in doubt) [Compound 5010, ((2S,4R)-4-aminotetrahydrofuran-2-yl)((S)-1-(4-fluorophenyl)-3,4-dihydroisoquinolin-2(1H)-yl)methanone], for which the pEC50 was 6.24.
On the same count and under the same terms, to `N[C@@H]1COC(C(=O)N2CCc3ccccc3[C@@H]2c2ccc(F)cc2)C1` (stereo in doubt) [Compound 5011, ((2S,4S)-4-aminotetrahydrofuran-2-yl)((S)-1-(4-fluorophenyl)-3,4-dihydroisoquinolin-2(1H)-yl)methanone] belongs 5.78.
On to `N[C@H]1COC(C(=O)N2CCc3ccccc3[C@@H]2c2ccc(F)cc2)C1` (stereo in doubt) [Compound 5012, ((2R,4R)-4-aminotetrahydrofuran-2-yl)((S)-1-(4-fluorophenyl)-3,4-dihydroisoquinolin-2(1H)-yl)methanone], for which the pEC50 was 6.90.
The same measure, in the same setting: to `N[C@@H]1COC(C(=O)N2CCc3ccccc3[C@@H]2c2ccc(F)cc2)C1` (stereo in doubt) [Compound 5013, ((2R,4S)-4-aminotetrahydrofuran-2-yl)((S)-1-(4-fluorophenyl)-3,4-dihydroisoquinolin-2(1H)-yl)methanone] belongs 6.49.
In the case of `NC1CCC(C(=O)N2CCc3ccccc3[C@@H]2c2ccc(F)cc2F)OC1` (stereo in doubt) [Compound 5018, ((2R,5S)-5-aminotetrahydro-2H-pyran-2-yl)((R)-1-(2,4-difluorophenyl)-3,4-dihydroisoquinolin-2(1H)-yl)methanone], the pEC50 was less than 5.00.
Consider `N[C@@]12CC[C@@](C(=O)N3CCc4ccccc4C3c3ccc(F)cc3)(C1)OC2` (stereo in doubt) [Compound 5020, (4-amino-2-oxabicyclo[2.2.1]heptan-1-yl)((S)-1-(4-fluorophenyl)-3,4-dihydroisoquinolin-2(1H)-yl)methanone], for which the pEC50 is 5.97.
Regarding `N[C@@]12CC[C@@](C(=O)N3CCc4ccccc4[C@H]3c3ccc(F)cc3)(C1)OC2` (stereo in doubt) [Compound 5022, (4-amino-2-oxabicyclo[2.2.1]heptan-1-yl)((S)-1-(4-fluorophenyl)-3,4-dihydroisoquinolin-2(1H)-yl)methanone], the pEC50 was 5.38.
The same measure, in the same setting: to `NCC1(O)CCO[C@@H](C(=O)N2CCc3ccccc3[C@@H]2c2ccc(F)cc2)C1` (stereo in doubt) [Compound 5540, ((2R,4R)-4-(aminomethyl)-4-hydroxytetrahydro-2H-pyran-2-yl)((S)-1-(4-fluorophenyl)-3,4-dihydroisoquinolin-2(1H)-yl)methanone] belongs 6.68; to `NC[C@@H]1CC[C@H](C(=O)N2CCc3ccccc3[C@@H]2c2ccc(F)cc2)O1` [Compound 5000, ((2R,5S)-5-(aminomethyl)tetrahydrofuran-2-yl)((S)-1-(4-fluorophenyl)-3,4-dihydroisoquinolin-2(1H)-yl)methanone], 6.39; to `NC[C@H]1CC[C@@H](C(=O)N2CCc3ccccc3[C@@H]2c2ccc(F)cc2)O1` [Compound 5001, ((2S,5R)-5-(aminomethyl)tetrahydrofuran-2-yl)((S)-1-(4-fluorophenyl)-3,4-dihydroisoquinolin-2(1H)-yl)methanone], 6.61.
Still for that read-out and setting: under `NC[C@H]1CC[C@H](C(=O)N2CCc3ccccc3[C@@H]2c2ccc(F)cc2)O1` [Compound 5002, ((2R,5R)-5-(aminomethyl)tetrahydrofuran-2-yl)((S)-1-(4-fluorophenyl)-3,4-dihydroisoquinolin-2(1H)-yl)methanone] stands 6.56; under `NC[C@@H]1CC[C@@H](C(=O)N2CCc3ccccc3[C@@H]2c2ccc(F)cc2)O1` [Compound 5003, ((2S,5S)-5-(aminomethyl)tetrahydrofuran-2-yl)((S)-1-(4-fluorophenyl)-3,4-dihydroisoquinolin-2(1H)-yl)methanone], 6.29; under `COCCN[C@H]1CC[C@@H](C(=O)N2CCc3ccccc3[C@@H]2c2ccc(F)cc2)OC1` [Compound 5029, ((S)-1-(4-fluorophenyl)-3,4-dihydroisoquinolin-2(1H)-yl)((2S,5S)-5-((2-methoxyethyl)amino)tetrahydro-2H-pyran-2-yl)methanone], 6.43.
On the same count and under the same terms, under `COCCN[C@H]1CC[C@H](C(=O)N2CCc3ccccc3[C@@H]2c2ccc(F)cc2)OC1` [Compound 5030, ((S)-1-(4-fluorophenyl)-3,4-dihydroisoquinolin-2(1H)-yl)((2R,5S)-5-((2-methoxyethyl)amino)tetrahydro-2H-pyran-2-yl)methanone] stands 6.46.
With `O=C([C@@H]1CC[C@@H](NCCO)CO1)N1CCc2ccccc2[C@@H]1c1ccc(F)cc1` [Compound 5032, ((S)-1-(4-fluorophenyl)-3,4-dihydroisoquinolin-2(1H)-yl)((2S,5R)-5-((2-hydroxyethyl)amino)tetrahydro-2H-pyran-2-yl)methanone], the pEC50 is 6.67.
Turning to `O=C([C@@H]1CC[C@H](NCCO)CO1)N1CCc2ccccc2[C@@H]1c1ccc(F)cc1` [Compound 5033, ((S)-1-(4-fluorophenyl)-3,4-dihydroisoquinolin-2(1H)-yl)((2S,5S)-5-((2-hydroxyethyl)amino)tetrahydro-2H-pyran-2-yl)methanone], the pEC50 was 6.79.
In the case of `O=C([C@H]1CC[C@H](NCCO)CO1)N1CCc2ccccc2[C@@H]1c1ccc(F)cc1` [Compound 5034, ((S)-1-(4-fluorophenyl)-3,4-dihydroisoquinolin-2(1H)-yl)((2R,5S)-5-((2-hydroxyethyl)amino)tetrahydro-2H-pyran-2-yl)methanone], the pEC50 was 6.73.
Same read-out and setting: to `COCCN[C@@H]1CC[C@@H](C(=O)N2CCc3ccccc3[C@@H]2c2ccc(F)cc2)OC1` [Compound 5035, ((S)-1-(4-fluorophenyl)-3,4-dihydroisoquinolin-2(1H)-yl)((2S,5R)-5-((2-methoxyethyl)amino)tetrahydro-2H-pyran-2-yl)methanone] belongs 6.43; to `CCNC[C@]1(O)CO[C@@H](C(=O)N2CCc3ccccc3[C@@H]2c2ccc(F)cc2)C1` [Compound 5036, ((2R,4S)-4-((ethylamino)methyl)-4-hydroxytetrahydrofuran-2-yl)((S)-1-(4-fluorophenyl)-3,4-dihydroisoquinolin-2(1H)-yl)methanone], 6.45; to `CCNC[C@@]1(O)CO[C@@H](C(=O)N2CCc3ccccc3[C@@H]2c2ccc(F)cc2)C1` [Compound 5037, ((2R,4R)-4-((ethylamino)methyl)-4-hydroxytetrahydrofuran-2-yl)((S)-1-(4-fluorophenyl)-3,4-dihydroisoquinolin-2(1H)-yl)methanone], 6.47.
Same read-out and setting: under `O=C([C@H]1C[C@](O)(CNCCO)CO1)N1CCc2ccccc2[C@@H]1c1ccc(F)cc1` [Compound 5041, ((S)-1-(4-fluorophenyl)-3,4-dihydroisoquinolin-2(1H)-yl)((2R,4S)-4-hydroxy-4-(((2-hydroxyethyl)amino)methyl)tetrahydrofuran-2-yl)methanone] stands 6.53; under `N[C@H]1CO[C@H](C(=O)N2CCc3ccccc3[C@@H]2c2ccc(F)cc2)C[C@H]1O` [Compound 5043, ((2S,4R,5S)-5-amino-4-hydroxytetrahydro-2H-pyran-2-yl)((S)-1-(4-fluorophenyl)-3,4-dihydroisoquinolin-2(1H)-yl)methanone], 7.19; under `N[C@H]1CO[C@H](C(=O)N2CCc3ccccc3[C@@H]2c2ccc(F)cc2)OC1` [Compound 5048, (trans-5-amino-1,3-dioxan-2-yl)((S)-1-(4-fluorophenyl)-3,4-dihydroisoquinolin-2(1H)-yl)methanone], 6.24.
As to `N[C@H]1CO[C@@H](C(=O)N2CCc3ccccc3[C@@H]2c2ccc(F)cc2)OC1` [Compound 5049, (cis-5-amino-1,3-dioxan-2-yl)((S)-1-(4-fluorophenyl)-3,4-dihydroisoquinolin-2(1H)-yl)methanone], the pEC50 was 6.59.
